Test results: patent publication US12600740B2, “Fluorinated N-acetyl glucosamine analogs and xylose derivatives” (UTI Limited Partnership, priority 2018, dated 2026)
“Also recorded” adds a separate entry of the source. Read-outs that look alike come from different tables or passages of the source.

Legend:
mouse astrocytes = experiment: Propidium iodide/calcein AM toxicity on astrocytes; assay type: cell-based; conditions: 100 μM, 48 hours
Procedure: Toxicity on astrocytes was assayed with propidium iodide/calcein AM […]. Live cells convert calcein AM into a green fluorescent product, whereas dying/dead cells are stained with propidium iodide.
96-well plates were imaged with ImageXpress® Micro Cellular Imaging and Analysis System (Molecular Devices, Sunnyvale, CA). Twelve images per well were collected at ×10 magnification. Images were processed with MetaXpress analysis software. OPC outgrowth was calculated by the MetaExpress® “neurite outgrowth” software module which uses fluorescence and user-modified parameters to document the overall extent of processes emanating from the cell soma, regardless of size of the protrusions or the number of branches. This was previously detailed elsewhere [Cua, R. C.; Lau, L. W.; Keough, M. B.; Midha, R.; Apte, S. S.; and Yong, V. W. Overcoming neurite-inhibitory chondroitin sulfate proteoglycans in the astrocyte matrix. Glia 2013, 61 (6), 972-84]. Live-dead cell assay was calculated with MetaXpress analysis software with the “multiwavelength cell scoring”, which uses fluorescent intensity to measure co-localization of calcein AM, propidium iodide, and […]. Data from the 12 images were averaged to a single data point per well, wherein the OPC outgrowth data calculated from the MetaExpress® “neurite outgrowth” readout was divided by data from the same 12 fields of cell number that was acquired through the multiwavelength cell scoring. This provided mean outgrowth per cell per well, with four well replicates per treatment. Experiments were repeated at least twice.
A mixture was created containing propidium iodide (10 μg/ml) to stain dead cells, 10 μM Calcein AM (ThermoFisher, #C3100MP) to identify live cells, and 2 drops per ml of media of NucBlue™ Live ReadyProbes™ Reagent (ThermoFisher, #R37605) to identify nuclei. The mixture was added to plate media and incubated for 20-30 minutes at 37° C. and 5% CO2 before imaging. Excitation/emission of calcein-AM (λex 490 nm, λem 515 nm), propidium iodide (λex 535 nm, λem 617 nm), and nuclear blue (λex 350 nm, λem 461 nm) was performed using ImageXpress® Micro Cellular Imaging and Analysis System (Molecular Devices, Sunnyvale, CA) and analyzed by MetaExpress multiwavelength cell scoring program.

[1] = system: CSPG production by astrocytes; experiment: Western blot of astrocyte conditioned medium, MAB2030 (chondroitin sulfate GAG stubs); assay type: cell-based, mouse; conditions: for Reduce CSPG production: astrocytes, significance class
How it was run: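 Astrocytes (1×10^6 cells/well) were treated with 50 μM compound in AIM-V for 48 h, and pooled conditioned medium was concentrated for Western blot. Samples for MAB2030 were digested overnight at 37° C with 0.2 U/ml chondroitinase ABC; 2H6 blots were undigested. ECL band density was normalized to untreated astrocytes on the same gel.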

[2] = astrocyte conditioned media, 50 μM, 48 hours

Compound	toxicity on astrocytes (propidium iodide/calcein AM) (mouse astrocytes)	effect on CSPG production by astrocytes [1]	effect on CSPG production by astrocytes [1, 2]	Reduce CSPG production [1]
CCCC(=O)OC1OC(COC(C)=O)[C@@H](F)[C@H](OC(C)=O)C1NC(C)=O (mixture of isomers) [Compound 8, 2-Acetamido-3,6-di-O-acetyl-1-O-butanoyl-2,4-dideoxy-4-fluoro-α/β-D-glucopyranose]	did not produce toxicity			
CC(=O)NC1C(O)OC(COC(C)=O)[C@@H](F)[C@@H]1OC(C)=O (mixture of isomers) [Compound 10]	did not produce toxicity	most effectively reduced CSPG production		
CC(=O)NC1C(OC(C)=O)OC(COC(C)=O)[C@H](F)[C@@H]1OC(C)=O (mixture of isomers) [Compound 13, 2-Acetamido-1,3,6-tri-O-acetyl-2,4-dideoxy-4-fluoro-α/β-D-galactopyranose]	did not produce toxicity		significantly reduced chondroitin sulfate GAGs; also recorded: most effectively reduced CSPG production	
CC(=O)NC1C(OC(C)=O)OC(COC(C)=O)C(F)(F)[C@@H]1OC(C)=O (mixture of isomers) [Compound 16, 2-Acetamido-1,3,6-tri-O-acetyl-2,4-dideoxy-4,4-difluoro-α/β-D-xylo-hexopyranose]	did not produce toxicity		reduced CSPG production in astrocytes more effectively than Ac-4-F-GlcNAc 3; also recorded: most effectively reduced CSPG production	
CC(=O)N[C@H]1[C@H](OC(C)=O)O[C@H](COC(C)=O)[C@@H](OC(C)=O)[C@@H]1OC(C)=O [Compound 1, reference compound]			did not affect CSPG production; also recorded: did not lower CSPG production in astrocytes	n.s.
CC(=O)NC1C(OC(C)=O)OC(COC(C)=O)[C@@H](F)C1OC(C)=O (stereo partly shown) [Compound 3, reference compound]	did not produce toxicity		most effectively reduced CSPG production	*** (***p < 0.001)
CCC(=O)OC1OC(COC(C)=O)[C@@H](F)[C@H](OC(C)=O)C1NC(C)=O (stereo partly drawn) [Compound 7, 2-Acetamido-3,6-di-O-acetyl-2,4-dideoxy-4-fluoro-1-O-propanoyl-α/β-D-glucopyranose]	did not produce toxicity		most effectively reduced CSPG production	
CCCC(=O)OC[C@H]1OC(O)[C@H](NC(C)=O)[C@@H](OC(=O)CCC)[C@@H]1F (stereo partly drawn) [Compound 12, 2-Acetamido-3,6-di-O-butanoyl-2,4-dideoxy-4-fluoro-α/β-3-D-glucopyranose]			did not affect CSPG synthesis; also recorded: did not lower CSPG production in astrocytes	n.s.
